# Laboratory results as given in PMC10794144, “A novel antibiotic class targeting the lipopolysaccharide transporter” (Nature, 2024).
# Where two headings read alike, the source gives them in different places.
# Test system: A. baumannii
# Experiment: microbe, parasite or virus in culture
# Conditions: Acinetobacter baumannii, 100%
# Summary of the method: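 Standard broth microdilution per CLSI; diluted 0.5 McFarland inocula in cation-adjusted Mueller-Hinton broth; visual or OD600 endpoint.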
smiles,measurement,setting,value
"C[C@@H](O)[C@H]1C(=O)N2C(C(=O)O)=C(S[C@@H]3CN[C@H](C(=O)N(C)C)C3)[C@H](C)[C@H]12 [meropenem, reference compound]",MIC,"read-out: MIC 100%, ROB08702, Study LGC284879",8 µg/mL
same,MIC,"read-out: MIC 100%, ROB08702, Study LGC285582",32 µg/mL
same,MIC,"read-out: MIC 100%, ROB08702, Study LGC286210",32 µg/mL
same,MIC,"read-out: MIC 100%, ROB08702, Study LGC293598",32 µg/mL
same,MIC,"read-out: MIC 100%, ROB08702, Study LGC294355",16 µg/mL
same,MIC,"read-out: MIC 100%, ROB08702, Study LGC295147",16 µg/mL
same,MIC,"read-out: MIC 100%, ROB08702, Study LGC296813",16 µg/mL
same,MIC,"read-out: MIC 100%, ROB08702, Study LGC299544",32 µg/mL
same,MIC,"read-out: MIC 100%, ROB08702, Study LGC301026",16 µg/mL
same,MIC,"read-out: MIC 100%, ROB08702, Study LGC308175",32 µg/mL
same,MIC,"read-out: MIC 100%, ROB08702, Study ROC003",16 µg/mL
same,MIC,"read-out: MIC 100%, ROB08702, Study ROC004",32 µg/mL
same,MIC,"read-out: MIC 100%, ROB08702, Study ROC005",32 µg/mL
same,MIC,"read-out: MIC 100%, ROB08702, Study ROC006",64 µg/mL
same,MIC,"read-out: MIC 100%, ROB08702, Study ROC007",32 µg/mL
same,MIC,"read-out: MIC 100%, ROB08702, Study ROC008",16 µg/mL
same,MIC,"read-out: MIC 100%, ROB08702, Study ROC009",16 µg/mL
same,MIC,"read-out: MIC 100%, ROB08702, Study ROC010",32 µg/mL
same,MIC,"read-out: MIC 100%, ROB08702, Study ROC012",32 µg/mL
same,MIC,"read-out: MIC 100%, ROB08702, Study ROC013",32 µg/mL
same,MIC,"read-out: MIC 100%, ROB08703, Study LGC277937",64 µg/mL
same,MIC,"read-out: MIC 100%, ROB08703, Study LGC279800",> 64 µg/mL
same,MIC,"read-out: MIC 100%, ROB08703, Study LGC281440",64 µg/mL
same,MIC,"read-out: MIC 100%, ROB08703, Study LGC282160",64 µg/mL
same,MIC,"read-out: MIC 100%, ROB08703, Study LGC282623",64 µg/mL
same,MIC,"read-out: MIC 100%, ROB08703, Study LGC283932",> 64 µg/mL
same,MIC,"read-out: MIC 100%, ROB08703, Study LGC284200",64 µg/mL
same,MIC,"read-out: MIC 100%, ROB08703, Study LGC284879",> 64 µg/mL
same,MIC,"read-out: MIC 100%, ROB08703, Study LGC285582",> 64 µg/mL
same,MIC,"read-out: MIC 100%, ROB08703, Study LGC286210",64 µg/mL
same,MIC,"read-out: MIC 100%, ROB08703, Study LGC293598",> 64 µg/mL
same,MIC,"read-out: MIC 100%, ROB08703, Study LGC294355",64 µg/mL
same,MIC,"read-out: MIC 100%, ROB08703, Study LGC295147",64 µg/mL
same,MIC,"read-out: MIC 100%, ROB08703, Study LGC296813",64 µg/mL
same,MIC,"read-out: MIC 100%, ROB08703, Study LGC299544",> 64 µg/mL
same,MIC,"read-out: MIC 100%, ROB08703, Study LGC301026",64 µg/mL
same,MIC,"read-out: MIC 100%, ROB08703, Study LGC308175",64 µg/mL
same,MIC,"read-out: MIC 100%, ROB08703, Study ROC003",64 µg/mL
same,MIC,"read-out: MIC 100%, ROB08703, Study ROC004",64 µg/mL
same,MIC,"read-out: MIC 100%, ROB08703, Study ROC005",> 64 µg/mL
same,MIC,"read-out: MIC 100%, ROB08703, Study ROC006",64 µg/mL
same,MIC,"read-out: MIC 100%, ROB08703, Study ROC007",> 64 µg/mL
same,MIC,"read-out: MIC 100%, ROB08703, Study ROC008",64 µg/mL
same,MIC,"read-out: MIC 100%, ROB08703, Study ROC009",64 µg/mL
same,MIC,"read-out: MIC 100%, ROB08703, Study ROC010",64 µg/mL
same,MIC,"read-out: MIC 100%, ROB08703, Study ROC012",64 µg/mL
same,MIC,"read-out: MIC 100%, ROB08703, Study ROC013",> 64 µg/mL
same,MIC,"read-out: MIC 100%, ROB08704, Study LGC277937",64 µg/mL
same,MIC,"read-out: MIC 100%, ROB08704, Study LGC279800",64 µg/mL
same,MIC,"read-out: MIC 100%, ROB08704, Study LGC281440",32 µg/mL
same,MIC,"read-out: MIC 100%, ROB08704, Study LGC282160",32 µg/mL
same,MIC,"read-out: MIC 100%, ROB08704, Study LGC282623",64 µg/mL
same,MIC,"read-out: MIC 100%, ROB08704, Study LGC283932",32 µg/mL
same,MIC,"read-out: MIC 100%, ROB08704, Study LGC284200",32 µg/mL
same,MIC,"read-out: MIC 100%, ROB08704, Study LGC284879",64 µg/mL
same,MIC,"read-out: MIC 100%, ROB08704, Study LGC285582",32 µg/mL
same,MIC,"read-out: MIC 100%, ROB08704, Study LGC286210",64 µg/mL
same,MIC,"read-out: MIC 100%, ROB08704, Study LGC293598",32 µg/mL
same,MIC,"read-out: MIC 100%, ROB08704, Study LGC294355",64 µg/mL
same,MIC,"read-out: MIC 100%, ROB08704, Study LGC295147",64 µg/mL
same,MIC,"read-out: MIC 100%, ROB08704, Study LGC296813",32 µg/mL
same,MIC,"read-out: MIC 100%, ROB08704, Study LGC299544",32 µg/mL
same,MIC,"read-out: MIC 100%, ROB08704, Study LGC301026",32 µg/mL
same,MIC,"read-out: MIC 100%, ROB08704, Study LGC308175",64 µg/mL
same,MIC,"read-out: MIC 100%, ROB08704, Study ROC003",64 µg/mL
same,MIC,"read-out: MIC 100%, ROB08704, Study ROC004",64 µg/mL
same,MIC,"read-out: MIC 100%, ROB08704, Study ROC005",64 µg/mL
same,MIC,"read-out: MIC 100%, ROB08704, Study ROC006",64 µg/mL
same,MIC,"read-out: MIC 100%, ROB08704, Study ROC007",64 µg/mL
same,MIC,"read-out: MIC 100%, ROB08704, Study ROC008",64 µg/mL
same,MIC,"read-out: MIC 100%, ROB08704, Study ROC009",32 µg/mL
same,MIC,"read-out: MIC 100%, ROB08704, Study ROC010",64 µg/mL
same,MIC,"read-out: MIC 100%, ROB08704, Study ROC012",32 µg/mL
same,MIC,"read-out: MIC 100%, ROB08704, Study ROC013",64 µg/mL
same,MIC,"read-out: MIC 100%, ROB08705, Study LGC277937",64 µg/mL
same,MIC,"read-out: MIC 100%, ROB08705, Study LGC279800",16 µg/mL
same,MIC,"read-out: MIC 100%, ROB08705, Study LGC281440",32 µg/mL
same,MIC,"read-out: MIC 100%, ROB08705, Study LGC282160",32 µg/mL
same,MIC,"read-out: MIC 100%, ROB08705, Study LGC282623",32 µg/mL
same,MIC,"read-out: MIC 100%, ROB08705, Study LGC283932",32 µg/mL
same,MIC,"read-out: MIC 100%, ROB08705, Study LGC284200",32 µg/mL
same,MIC,"read-out: MIC 100%, ROB08705, Study LGC284879",32 µg/mL
same,MIC,"read-out: MIC 100%, ROB08705, Study LGC285582",32 µg/mL
same,MIC,"read-out: MIC 100%, ROB08705, Study LGC286210",32 µg/mL
same,MIC,"read-out: MIC 100%, ROB08705, Study LGC293598",32 µg/mL
same,MIC,"read-out: MIC 100%, ROB08705, Study LGC294355",32 µg/mL
